Measurements published in patent US10583106B2, “Method of treating cancer by oral administration of acetate composition comprising magnesium acetate, calcium acetate or ethylacetate” (priority 2015, dated 2020).
Read-outs that look alike come from different tables or passages of the source.

Key:
Human females = tested on: Human females; set-up: key to Apneias: ↑: increased; ↓: decreased; details: cited from earlier work; for Apneias: Krajnc, 2013, Khwaja, 2014
histone acetylation = details: brief description of the histone acetylation mechanism; cited from earlier work
Rats = details: 30 days, diet with 28.5% of total calories supplied by Triacetin; cited from earlier work
animals = details: cited from earlier work
MeCP2 KO mice = tested on: MeCP2 KO mice; set-up: key: ↑: increased; ↓: decreased; details: Park, 2014; cited from earlier work
[1] = tested on: ectopically methylated DNA; details: cells harvested 48 hours after treatment; cited from earlier work
HDAC = details: Ookubo, 2013; cited from earlier work
MeCP2^tm1.1Jae mice = tested on: MeCP2^tm1.1Jae mice; set-up: key to Lifespan / Normal breathing / Motor function / Motility: ↑: increased; ↓: decreased; details: cited from earlier work
MecP2-null mice = tested on: MecP2-null mice; set-up: key to Lifespan / Normal breathing / Motor function: ↑: increased; ↓: decreased; details: 2009, cited from earlier work
MeCP2^tm1.1Bird mice = tested on: MeCP2^tm1.1Bird mice; set-up: key: ↑: increased; ↓: decreased; details: cited from earlier work
[2] = tested on: adult offspring of Low LG maternal care; details: Weaver et al., 2004; cited from earlier work
[3] = tested on: polyglutamine induced cell death; details: McCampbell, 2001; cited from earlier work
X-inactivation = details: cited from earlier work
FMR1 mRNA = details: Baicsi, 2008; cited from earlier work
R6/2 HD mice = details: cited from earlier work
16 month old mice = details: Peleg, 2010; cited from earlier work
MeCP2^1lox mice = tested on: MeCP2^1lox mice; set-up: key: ↑: increased; ↓: decreased; details: Schaevitz, 2012, cited from earlier work
[4] = tested on: MeCP2-mutated human fibroblasts; details: Gold, 2015; cited from earlier work
[5] = tested on: MeCP2-mutated human fibroblasts; assay: Tubastatin A in MeCP2-mutated human fibroblasts; details: 1 μM versus 5 mM butyrate
MeCP2^tm1HzO mice = tested on: MeCP2^tm1HzO mice; set-up: key: ↑: increased; ↓: decreased; details: Ben-Zeev, 2011, cited from earlier work
histones = details: radiolabeled acetate; cited from earlier work
Non-Hodgkin's Lymphoma = details: continued regime of DCA and thiamine; cited from earlier work
[6] = radioactive DCA; exhaled in breath; cited from earlier work
[7] = Flavin, 2010; cited from earlier work
cultured colon cells = details: Mariadason, 2000; cited from earlier work
[8] = tested on: Silenced MeCP2 in mouse neurons; set-up: key: ↑: increased; ↓: decreased; details: Ma, 2015; cited from earlier work
[9] = tested on: Fragile X syndrome patients; details: 12 weeks; from ˜50%; cited from earlier work

Molecule: CC1(C)O[C@@H]2[C@@H](CO[C@@]3(COS(N)(=O)=O)OC(C)(C)O[C@@H]23)O1 [Topiramate]
- Apneias (Human females): ↓ Apneias
- Histone acetylation (mechanism) (histone acetylation): HDACi

Molecule: CC(=O)OCC(COC(C)=O)OC(C)=O [Triacetin, glycerin triacetate]
- signs of toxicity (Rats): No overt signs of toxicity
- metabolism (animals; CIREP, 2003): quickly metabolized into glycerol and acetic acid
- toxicity in acute oral or dermal exposures (animals; CIREP, 2003): not toxic
- tolerated triacetin as a percentage of total diet (animals; replacing conventional carbohydrates, Shapira, 1968): up to 20%

Molecule: CCCCCCC(=O)OCC(COC(=O)CCCCCC)OC(=O)CCCCCC [Triheptanoin]
- Lifespan (MeCP2 KO mice): ↑ Lifespan, ↑ Social interaction,
- Motor function (MeCP2 KO mice): ↑ Motor function
- Social interaction (MeCP2 KO mice): ↑ Lifespan, ↑ Social interaction,
- Histone acetylation (mechanism) (histone acetylation): Metabolizes to Acetyl-CoA

Molecule: CCCC(CCC)C(=O)O [Valproic acid]
- demethylation of ectopically methylated DNA [1]: stimulates active demethylation
- HDAC inhibitor activity (HDAC): HDAC inhibitors
- Motility (MeCP2^tm1.1Jae mice; Guo, 2014): ↑ Motility,
- gene expression in brain (MeCP2^tm1.1Jae mice; Guo, 2014): Normalized gene expression in brain
- neurological symptoms (MeCP2^tm1.1Jae mice; Guo, 2014): Improved neurological symptoms,
- Histone acetylation (mechanism) (histone acetylation): HDACi

Molecule: NC(=O)N1c2ccccc2CC(=O)c2ccccc21 [oxcarbazepine]
- HDAC inhibitor activity (HDAC): HDAC inhibitors

Molecule: IGF-1: Insulin-like Growth Factor 1
- Apneias (Human females): ↓ Apneias
- 9 separate measures of RTT symptoms in mice (MecP2-null mice; MeCP2 mutant mice, Tropea): partially rescued
- Lifespan (MecP2-null mice; Trpoea): ↑ Lifespan, ↑ Normal breathing,
- Motor function (MecP2-null mice; Trpoea): ↑ Motor function
- Normal breathing (MecP2-null mice; Trpoea): ↑ Lifespan, ↑ Normal breathing,
- Histone acetylation (mechanism) (histone acetylation): Increases H3, H4 Histone

Molecule: N[C@@H](Cc1ccc(O)c(O)c1)C(=O)O [Levodopa]
- Histone acetylation (mechanism) (histone acetylation): Histone acetylation,
- TH expressing neurons (MeCP2^tm1.1Bird mice; Roux, 2007, Szczesna, 2014): ↑ TH expressing neurons
- Hind-limb clasping (MeCP2^tm1.1Bird mice; Szczesna, 2014): ↓
- Lifespan (MeCP2^tm1.1Bird mice; Szczesna, 2014): ↑
- Motor function (MeCP2^tm1.1Bird mice; Szczesna, 2014): ↑
- Tremor (MeCP2^tm1.1Bird mice; Szczesna, 2014): ↓

Molecule: CNCC[C@H](Oc1cccc2ccccc12)c1cccs1 [duloxetine]
- HDAC inhibitor activity (HDAC): HDAC inhibitors

Molecule: O=c1cc(-c2ccccc2)oc2c(O)c(O)ccc12 [7,8-dihydroxyflavone]
- Lifespan (MeCP2^tm1.1Jae mice; Johnson, 2011): ↑ Lifespan, ↑ Normal breathing,
- Motor function (MeCP2^tm1.1Jae mice; Johnson, 2011): ↑ Motor function
- Normal breathing (MeCP2^tm1.1Jae mice; Johnson, 2011): ↑ Lifespan, ↑ Normal breathing,

Molecule: CC[C@@H](C(N)=O)N1CCCC1=O [levetriacetam]
- HDAC inhibitor activity (HDAC): HDAC inhibitors

Molecule: CC(/C=C/C(=O)NO)=C\[C@@H](C)C(=O)c1ccc(N(C)C)cc1 [Trichostatin A]
- acetylation [2]: increased
- glucocorticoid receptor gene activation [2]: to levels indistinguishable from adult offspring of High LG maternal care
- methylation [2]: reduced
- stress response [2]: reduced
- ability to reduce cell death [3]: reduce cell death
- expression of AR [the mutant protein] [3]: slightly increased
- X-inactivation of the cells (X-inactivation; even if Xist was turned off): no change

Molecule: Nc1ncn([C@H]2C[C@H](O)[C@@H](CO)O2)c(=O)n1 [5-azadC, 5-aza-2′-deoxycytidine]
- FMR1 mRNA relative to normal control cells (FMR1 mRNA): approximately 20%
- number of cells that lost their X-inactivation (X-inactivation; Xist on): 19 × as many compared to controls
- number of cells that lost their X-inactivation (X-inactivation; combined with Xist deletion): 30 × as many compared to controls

Molecule: O=C(O)CCCc1ccccc1 [PBA, phenylbutyric acid]
- ability to reduce cell death [3]: reduction in cell death
- expression of AR [the mutant protein] [3]: slightly increased

Molecule: O=C(CCCCCCC(=O)Nc1ccccc1)NO [SAHA, Vorinostat]
- Motor function (R6/2 HD mice; added to drinking water): marked improvement
- blood-brain barrier crossing (R6/2 HD mice; mouse, in vivo): crosses the blood-brain barrier
- histone acetylation in the brain (R6/2 HD mice; mouse, in vivo): increases
- ability to reduce cell death [3]: comparable to TSA
- expression of AR [the mutant protein] [3]: slightly increased
- memory (16 month old mice): improves

Molecule: CC(=O)O[C@H](CC(=O)[O-])C[N+](C)(C)C [Acetyl-L-Carnitine]
- Motor function (MeCP2^1lox mice; Nag, 2007): ↑ Motor function
- Forepaw grip strength (MeCP2^1lox mice): ↑ Forepaw grip strength,
- Histone acetylation (mechanism) (histone acetylation): Increases Acetyl-CoA

Molecule: CN(C)CCCN1c2ccccc2CCc2ccc(Cl)cc21 [clomipramine]
- HDAC inhibitor activity (HDAC): HDAC inhibitors

Molecule: CN1CCc2c(c3ccccc3n2Cc2ccc(C(=O)NO)cc2)C1 [Tubastatin A]
- concentration at which it is a specific HDACi inhibitor (as low as) [4]: 1 µM
- mictotubules depolymerization [4]: Protects mictotubules from
- HDACi activity relative to butyrate [5]: 5000 times
- Histone acetylation (mechanism) (histone acetylation): HDACi

Molecule: [Cl-].[Li+] [lithium chloride]
- HDAC inhibitor activity (HDAC): HDAC inhibitors

Molecule: CNCCCN1c2ccccc2CCc2ccccc21 [Desipramine]
- TH expressing neurons (MeCP2^tm1.1Bird mice; Roux, 2007, Szczesna, 2014): ↑
- Apneas (MeCP2^tm1.1Bird mice; Roux, 2007): ↓

Molecule: Glatiramer acetate
- Histone acetylation (mechanism) (histone acetylation): Contains acetate
- BDNF (MeCP2^tm1HzO mice): ↑ BDNF
- BDNF (MeCP2^tm1HzO mice; text): increase

Molecule: CC(=O)O [acetate]
- time for histones to become significantly acetylated (histones): ≤ 15 min

Molecule: O=C(O)C(Cl)Cl [DCA, dichloroacetate]
- monthly blood tests (Non-Hodgkin's Lymphoma): normal
- fraction metabolized to carbon dioxide [6]: up to 50%
- toxicity of prolonged exposure [7]: peripheral neuropathy

Molecule: CCCC(=O)[O-].[Na+] [sodium butyrate]
- ability to reduce cell death [3]: reduction in cell death
- expression of AR [the mutant protein] [3]: slightly increased
- number of genes modified relative to TSA (cultured colon cells): roughly 10 times

Molecule: NC(=O)N1c2ccccc2C=Cc2ccccc21 [carbamazepine]
- HDAC inhibitor activity (HDAC): HDAC inhibitors

Molecule: CCCC(C)C1(CC)C(=O)NC(=O)NC1=O (stereo not shown) [Pentobarbatol]
- Synaptic transmission (calcium spikes) [8]: ↑Synaptic transmission (calcium
- dendrite growth [8]: ↑ dendrite growth,

Molecule: O=C1CCc2c(ccc3ccccc23)O1 [Splitomycin]
- FMR1 mRNA relative to normal control cells (FMR1 mRNA): approximately 20%

Molecule: CNC1(c2ccccc2Cl)CCCCC1=O (stereo not shown) [Ketamine]
- PPI of the ASR (cognitive function) (MeCP2^tm1.1Jae mice; Kron, 2012): Improved PPI of the ASR (cognitive
- Histone acetylation (mechanism) (histone acetylation): HDACi activity in the Nucleus

Molecule: Nc1nnc(-c2cccc(Cl)c2Cl)c(N)n1 [lamotrigine]
- HDAC inhibitor activity (HDAC): HDAC inhibitors

Molecule: CC[C@H](C)C(=O)O[C@H]1C[C@@H](C)C=C2C=C[C@H](C)[C@H](CC[C@@H]3C[C@@H](O)CC(=O)O3)[C@H]21 [Lovastatin]
- Aberrant Behavior Checklist score [9]: ~30%

Molecule: C[N+](C)(C)C[C@H](O)CC(=O)[O-] [L-Carnitine]
- Hand Apraxia Scale assessment (Human females; Ellaway, 1999): no effect on Hand Apraxia Scale
- Patient Well Being Index (Human females; Ellaway, 1999): Improved Patient Well Being Index,
- Histone acetylation (mechanism) (histone acetylation): Increases Acetyl-CoA

B1: Exogenous BDNF: Brain Derived Neurotrophic Factor protein, given exogenously (protein, UniProt P23560 129-247, looked up)
Neurotrophic factor BDNF: HSDPARRGELSVCDSISEWVTAADKKTAVDMSGGTVTVLEKVPVSKGQLKQYFYETKCNPMGYTKEGCRGIDKRHWNSQCRTTQSYVRALTMDSKKRIGWRFIRIDTSCVCTLTIKRGR
modifications: Neurotrophic factor BDNF
- synaptic function in brainstem slices (MeCP2^tm1.1Jae mice; Kline, 2010, listed as exogenous BDNF): normalize
